Experiments:
Type in all cases: in vivo
[1] = tested on: ragweed (common ragweed, Ambrosia elatior); assay: Test A preemergence, visual injury rating
How it was run: (§1)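 Scoring: eye-based comparison with untreated controls, 0 for no effect through 100 for complete control, at about day 10. Treatments: directed soil spray preemergence; foliar spray postemergence on 2–10 cm plants at the one- to two-leaf stage. Medium: loam soil with sand.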

[2] = tested on: giant foxtail (Setaria faberii); assay: Test A preemergence, visual injury rating
How it was run: as §1

[3] = tested on: barnyardgrass (Echinochloa crus-galli); assay: Test A preemergence, visual injury rating; details: for Plant response rating, Barnyardgrass: 31 g ai/ha, 0 to 100 scale, 0 no effect, 100 complete control; for Barnyardgrass plant response rating: 125 g ai/ha, 0 to 100 scale (0 no effect, 100 complete control)
How it was run: as §1

[4] = tested on: pigweed (Amaranthus retroflexus); assay: Test A preemergence, visual injury rating
How it was run: as §1

[5] = tested on: Italian ryegrass (Lolium multiflorum); assay: Test A preemergence, visual injury rating
How it was run: as §1

kochia (Kochia scoparia) [6] = assay: Test A preemergence, visual injury rating
How it was run: as §1

[7] = tested on: ducksalad (Heteranthera limosa); assay: Test B flooded paddy test, plant response rating; details: 250 g ai/ha; Flood; scale of 0 to 100 where 0 is no effect and 100 is complete control; 13 to 15 days
How it was run: (§2)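 Test compounds are applied straight into paddy water held 3 cm above the soil surface, with that flood maintained for the whole test. After 13 to 15 days in the greenhouse, each species is scored visually relative to controls.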

[8] = tested on: sedge, umbrella (small-flower umbrella sedge, Cyperus difformis); assay: Test B flooded paddy test, plant response rating; details: 250 g ai/ha; Flood; scale of 0 to 100 where 0 is no effect and 100 is complete control; 13 to 15 days
How it was run: as §2

rice (Oryza sativa) = assay: Test B flooded paddy test, plant response rating; details: 250 g ai/ha; Flood; scale of 0 to 100 where 0 is no effect and 100 is complete control; 13 to 15 days
How it was run: as §2

[9] = tested on: barnyardgrass (Echinochloa crus-galli); assay: Test B flooded paddy test, plant response rating; details: 250 g ai/ha; Flood; scale of 0 to 100 where 0 is no effect and 100 is complete control; 13 to 15 days
How it was run: as §2

[10] = tested on: wheat (Triticum aestivum); assay: Test A postemergence, visual injury rating; details: 0 is no effect, 100 is complete control; for Wheat plant response rating: 0 to 100 scale, approximately 10 days
How it was run: as §1

[11] = tested on: ragweed (common ragweed, Ambrosia elatior); assay: Test A postemergence, visual injury rating; details: 0 is no effect, 100 is complete control; for Ragweed plant response rating: 0 to 100 scale, approximately 10 days
How it was run: as §1

[12] = tested on: giant foxtail (Setaria faberii); assay: Test A postemergence, visual injury rating; details: 0 is no effect, 100 is complete control; for Foxtail, Giant plant response rating: 0 to 100 scale, approximately 10 days
How it was run: as §1

[13] = tested on: galium (catchweed bedstraw, Galium aparine); assay: Test A postemergence, visual injury rating; details: 0 is no effect, 100 is complete control; for Galium plant response rating: 0 to 100 scale, approximately 10 days
How it was run: as §1

corn (Zea mays) = assay: Test A postemergence, visual injury rating; details: 0 is no effect, 100 is complete control; for Corn plant response rating: 0 to 100 scale, approximately 10 days
How it was run: as §1

[14] = tested on: barnyardgrass (Echinochloa crus-galli); assay: Test A postemergence, visual injury rating; details: 0 is no effect, 100 is complete control; for Barnyardgrass plant response rating: 0 to 100 scale, approximately 10 days
How it was run: as §1

[15] = tested on: pigweed (Amaranthus retroflexus); assay: Test A postemergence, visual injury rating; details: 0 is no effect, 100 is complete control; for Pigweed plant response rating: 0 to 100 scale, approximately 10 days
How it was run: as §1

[16] = tested on: Italian ryegrass (Lolium multiflorum); assay: Test A postemergence, visual injury rating; details: 0 is no effect, 100 is complete control; for Ryegrass, Italian plant response rating: 0 to 100 scale, approximately 10 days
How it was run: as §1

[17] = tested on: blackgrass (Alopecurus myosuroides); assay: Test A postemergence, visual injury rating; details: 0 is no effect, 100 is complete control; for Blackgrass plant response rating: 0 to 100 scale, approximately 10 days
How it was run: as §1

kochia (Kochia scoparia) [18] = assay: Test A postemergence, visual injury rating; details: 0 is no effect, 100 is complete control; for Kochia plant response rating: 0 to 100 scale, approximately 10 days
How it was run: as §1

[19] = 31 g ai/ha, 0 to 100 scale, 0 no effect, 100 complete control
[20] = 125 g ai/ha, 0 to 100 scale (0 no effect, 100 complete control)

Compound	Plant response rating, Ragweed [1, 19]	Plant response rating, Foxtail, Giant [2, 19]	Plant response rating, Barnyardgrass [3]	Barnyardgrass plant response rating [3]	Plant response rating, Pigweed [4, 19]	Plant response rating, Ryegrass, Italian [5, 19]	Plant response rating, Kochia (kochia (Kochia scoparia) [6]; [19])	Plant response rating, Ducksalad [7]	Plant response rating, Sedge, Umbrella [8]	Plant response rating, Rice (rice (Oryza sativa))	Plant response rating, Barnyardgrass [9]	Wheat plant response rating ([10]; 31 g ai/ha)	Ragweed plant response rating ([11]; 31 g ai/ha)	Foxtail, Giant plant response rating ([12]; 31 g ai/ha)	Galium plant response rating ([13]; 31 g ai/ha)	Corn plant response rating (corn (Zea mays); 31 g ai/ha)	Barnyardgrass plant response rating ([14]; 31 g ai/ha)	Pigweed plant response rating ([15]; 31 g ai/ha)	Ryegrass, Italian plant response rating ([16]; 31 g ai/ha)	Blackgrass plant response rating ([17]; 31 g ai/ha)	also measured
CCON=C(C)c1c(Br)cccc1Oc1ncc(Cl)cn1 [Compound 95]	0	0	10	70	0	0	0	30	0	0	0	0	0	0	10	0	0	10	0	0	Ragweed plant response rating [1, 20]: 0; Foxtail, Giant plant response rating [2, 20]: 50; Pigweed plant response rating [4, 20]: 40; Ryegrass, Italian plant response rating [5, 20]: 0; Kochia plant response rating (kochia (Kochia scoparia) [6]; [20]): 0; Wheat plant response rating ([10]; 125 g ai/ha): 0; Ragweed plant response rating ([11]; 125 g ai/ha): 0; Foxtail, Giant plant response rating ([12]; 125 g ai/ha): 60; Galium plant response rating ([13]; 125 g ai/ha): 40; Corn plant response rating (corn (Zea mays); 125 g ai/ha): 10; Barnyardgrass plant response rating ([14]; 125 g ai/ha): 30; Pigweed plant response rating ([15]; 125 g ai/ha): 20; Ryegrass, Italian plant response rating ([16]; 125 g ai/ha): 0; Blackgrass plant response rating ([17]; 125 g ai/ha): 10; Kochia plant response rating (kochia (Kochia scoparia) [18]; 31 g ai/ha): 0; Kochia plant response rating (kochia (Kochia scoparia) [18]; 125 g ai/ha): 0
CCCCc1c(C#N)cccc1Oc1ncc(Cl)cn1 [Compound 86]	0	0	0	90	20	0	10	100	100	20	40	30	0	10	30	30	20	30	0	0	Ragweed plant response rating [1, 20]: 0; Foxtail, Giant plant response rating [2, 20]: 50; Pigweed plant response rating [4, 20]: 100; Ryegrass, Italian plant response rating [5, 20]: 20; Kochia plant response rating (kochia (Kochia scoparia) [6]; [20]): 100; Wheat plant response rating ([10]; 125 g ai/ha): 40; Ragweed plant response rating ([11]; 125 g ai/ha): 0; Foxtail, Giant plant response rating ([12]; 125 g ai/ha): 30; Galium plant response rating ([13]; 125 g ai/ha): 70; Corn plant response rating (corn (Zea mays); 125 g ai/ha): 30; Barnyardgrass plant response rating ([14]; 125 g ai/ha): 40; Pigweed plant response rating ([15]; 125 g ai/ha): 40; Ryegrass, Italian plant response rating ([16]; 125 g ai/ha): 20; Blackgrass plant response rating ([17]; 125 g ai/ha): 20; Kochia plant response rating (kochia (Kochia scoparia) [18]; 31 g ai/ha): 90; Kochia plant response rating (kochia (Kochia scoparia) [18]; 125 g ai/ha): 100
O=C(OC/C=C/C(F)(F)F)c1c(Br)cccc1Oc1ncc(Cl)cn1 [Compound 50]	0	50	0	10	0	0	0	65	80	0	0	0	0	20	60	10	0	80	0	0	Ragweed plant response rating [1, 20]: 0; Foxtail, Giant plant response rating [2, 20]: 100; Pigweed plant response rating [4, 20]: 90; Ryegrass, Italian plant response rating [5, 20]: 0; Kochia plant response rating (kochia (Kochia scoparia) [6]; [20]): 0; Wheat plant response rating (0 to 100 scale) ([10]; 125 g ai/ha): 0; Ragweed plant response rating (0 to 100 scale) ([11]; 125 g ai/ha): 0; Foxtail, Giant plant response rating (0 to 100 scale) ([12]; 125 g ai/ha): 70; Galium plant response rating (0 to 100 scale) ([13]; 125 g ai/ha): 90; Corn plant response rating (0 to 100 scale) (corn (Zea mays); 125 g ai/ha): 10; Barnyardgrass plant response rating (0 to 100 scale) ([14]; 125 g ai/ha): 20; Pigweed plant response rating (0 to 100 scale) ([15]; 125 g ai/ha): 100; Ryegrass, Italian plant response rating (0 to 100 scale) ([16]; 125 g ai/ha): 20; Blackgrass plant response rating (0 to 100 scale) ([17]; 125 g ai/ha): 20; Kochia plant response rating (kochia (Kochia scoparia) [18]; 31 g ai/ha): 60; Kochia plant response rating (0 to 100 scale) (kochia (Kochia scoparia) [18]; 125 g ai/ha): 90
Cc1cccc(Oc2ncc(Cl)cn2)c1C(=O)OCCC(F)(F)F [Compound 99]	0	90	70	100	50	0	40	100	90	40	60	0	10	50	20	0	30	10	0	30	Plant response rating, Ragweed [1, 20]: 10; Plant response rating, Foxtail, Giant [2, 20]: 100; Plant response rating, Pigweed [4, 20]: 90; Plant response rating, Ryegrass, Italian [5, 20]: 30; Plant response rating, Kochia (kochia (Kochia scoparia) [6]; [20]): 80; Wheat plant response rating ([10]; 125 g ai/ha): 30; Ragweed plant response rating ([11]; 125 g ai/ha): 30; Foxtail, Giant plant response rating ([12]; 125 g ai/ha): 90; Galium plant response rating ([13]; 125 g ai/ha): 70; Corn plant response rating (corn (Zea mays); 125 g ai/ha): 50; Barnyardgrass plant response rating ([14]; 125 g ai/ha): 80; Pigweed plant response rating ([15]; 125 g ai/ha): 40; Ryegrass, Italian plant response rating ([16]; 125 g ai/ha): 50; Blackgrass plant response rating ([17]; 125 g ai/ha): 80; Kochia plant response rating (kochia (Kochia scoparia) [18]; 31 g ai/ha): 20; Kochia plant response rating (kochia (Kochia scoparia) [18]; 125 g ai/ha): 40
